Assay results reported in US9782415B2, “Substituted pyrazolo[1,5-a]pyrimidine compounds as Trk kinase inhibitors” (Array BioPharma, Inc., priority 2009, dated 2017).
Where two headings read alike, the source gives them in different places. One block for each molecule: values may come before it.

How the values were obtained:
Format in all cases: biochemical
Human Jak2 kinase domain = Human Jak2 kinase domain (Homo sapiens (Human), UniProt O60674); assay: Jak2 Inhibition Assay (Omnia kinase assay)
Description: The assays described in Examples C, D, E and F for the determination of JAK1, JAK2, JAK3 and Tyk2 kinase activity, respectively, utilized the Omnia® Kinase fluorescence peptide substrate-based technology (Invitrogen). The specific components of the assay mixture are described in Examples C, D and E. […] Two-μL aliquots of these were transferred to a fresh plate for a ten-fold intermediate dilution with assay buffer. […] Human Jak2 kinase domain comprising amino acids 808-1132 was purchased from Invitrogen Corporation, Carlsbad, Calif.

Human Tyk2 kinase domain = Human Tyk2 kinase domain (Homo sapiens (Human), UniProt P29597); assay: Tyk2 Inhibition Assay (Omnia kinase assay); settings: Table 2; 500 μM ATP
Description: (§1) The assays described in Examples C, D, E and F for the determination of JAK1, JAK2, JAK3 and Tyk2 kinase activity, respectively, utilized the Omnia® Kinase fluorescence peptide substrate-based technology (Invitrogen). […] The reactions were therefore read at excitation 360 nm and emission was measured at 485 nm every 50 seconds for 45 minutes using a PerkinElmer EnVision Multilabel Plate Reader.
(§2) The final buffer conditions for each of the JAK1, JAK2, JAK3 and Tyk2 assays were as follows: 25 mM HEPES, pH 7.4, 10 mM MgCl2, 0.01% Triton X-100 and 1 mM DTT.
(§3) Compounds were prepared at 50× the final concentration in DMSO by conducting 3-fold serial dilutions from a 500-μM or 1000-μM intermediate dilution to give a 10-point dosing curve having a high dose of 10 or 20 μM. Two-μL aliquots of these were transferred to a fresh plate for a ten-fold intermediate dilution with assay buffer. Five-μL aliquots of the diluted compounds were then transferred to 20-μL of assay mixtures described in Examples C, D, E and F for a final concentration of DMSO of 2%. A standard or reference compound was typically included on each assay plate to validate that plate. For each plate, percent of control (POC) values were calculated for each well according to the following equation: […]
(§4) IC50's were estimated from the POC's using a standard 4-parameter logistic model: […]

[1] = molecular target: histidine-tagged recombinant human TrkA, cytoplasmic domain (Homo sapiens (Human), UniProt P04629); assay: TrkA ELISA Assay; settings: Table 1, 500 μM ATP, read-out: TrkA Enzyme IC50
Description: An enzyme-linked immunosorbant assay (ELISA) was used to assess TrkA kinase activity in the presence of inhibitors. […] The assay buffer consisted of 25 mM MOPS pH 7.5, 0.005% (v/v) Triton X-100 and 5 mM MgCl2. The reaction mixture was removed from the plate by washing with PBS containing 0.1% (v/v) Tween 20. […] After the addition of 1M phosphoric acid, the chromogenic substrate color intensity was quantitated via absorbance at 450 nm.

[2] = molecular target: GST-tagged human Jak3 kinase domain (Homo sapiens (Human), UniProt P52333); assay: Jak3 Inhibition Assay (Omnia kinase assay); settings: Table 2; 500 μM ATP
Description: as §1, §2, §3, §4

[3] = molecular target: GST-tagged human Jak1 kinase domain (Homo sapiens (Human), UniProt P23458); assay: Jak1 Inhibition Assay (Omnia kinase assay); settings: Table 2; 500 μM ATP
Description: as §1, §2, §3, §4

[4] = read-out: Jak2 Enzyme % inhibition at 1000 nM, Table 1, 1000 nM test compound

Human Jak2 kinase domain, sequence (O60674 808-1132): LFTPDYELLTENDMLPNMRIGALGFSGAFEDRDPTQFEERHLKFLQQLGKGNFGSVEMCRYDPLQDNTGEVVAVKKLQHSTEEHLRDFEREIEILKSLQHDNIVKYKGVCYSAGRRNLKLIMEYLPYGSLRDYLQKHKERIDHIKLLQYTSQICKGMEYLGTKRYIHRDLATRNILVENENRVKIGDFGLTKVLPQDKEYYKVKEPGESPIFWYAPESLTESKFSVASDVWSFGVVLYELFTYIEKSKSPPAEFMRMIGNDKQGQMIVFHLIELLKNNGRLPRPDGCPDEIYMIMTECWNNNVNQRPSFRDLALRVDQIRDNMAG
Human Tyk2 kinase domain, sequence (P29597 886-1187): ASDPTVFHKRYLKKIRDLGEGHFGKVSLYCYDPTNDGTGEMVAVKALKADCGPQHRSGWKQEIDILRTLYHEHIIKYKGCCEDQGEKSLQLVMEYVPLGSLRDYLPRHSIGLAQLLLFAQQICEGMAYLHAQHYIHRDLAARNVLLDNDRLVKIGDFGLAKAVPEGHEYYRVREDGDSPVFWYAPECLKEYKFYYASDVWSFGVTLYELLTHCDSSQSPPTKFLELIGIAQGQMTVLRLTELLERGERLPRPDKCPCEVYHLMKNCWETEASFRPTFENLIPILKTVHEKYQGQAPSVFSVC
GST-tagged human Jak1 kinase domain, sequence (P23458 866-1154): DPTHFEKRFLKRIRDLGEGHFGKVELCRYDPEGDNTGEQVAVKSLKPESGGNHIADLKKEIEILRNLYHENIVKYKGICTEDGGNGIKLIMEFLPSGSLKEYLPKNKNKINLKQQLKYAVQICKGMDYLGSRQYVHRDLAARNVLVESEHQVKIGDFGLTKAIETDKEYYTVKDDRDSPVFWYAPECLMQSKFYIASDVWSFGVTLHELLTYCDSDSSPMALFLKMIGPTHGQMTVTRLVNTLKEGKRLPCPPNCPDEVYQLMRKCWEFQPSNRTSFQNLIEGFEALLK
GST-tagged human Jak3 kinase domain, sequence (P52333 781-1124): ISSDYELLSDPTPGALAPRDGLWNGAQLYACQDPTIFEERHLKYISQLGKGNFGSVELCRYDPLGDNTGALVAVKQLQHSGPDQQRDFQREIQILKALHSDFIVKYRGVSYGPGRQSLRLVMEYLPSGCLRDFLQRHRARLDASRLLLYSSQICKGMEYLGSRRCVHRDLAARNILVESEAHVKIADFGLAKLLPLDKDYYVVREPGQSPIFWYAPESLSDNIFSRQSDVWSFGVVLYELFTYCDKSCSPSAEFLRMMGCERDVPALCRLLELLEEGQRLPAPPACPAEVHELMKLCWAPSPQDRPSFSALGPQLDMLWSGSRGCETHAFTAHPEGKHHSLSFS
histidine-tagged recombinant human TrkA, cytoplasmic domain, sequence (P04629 440-796): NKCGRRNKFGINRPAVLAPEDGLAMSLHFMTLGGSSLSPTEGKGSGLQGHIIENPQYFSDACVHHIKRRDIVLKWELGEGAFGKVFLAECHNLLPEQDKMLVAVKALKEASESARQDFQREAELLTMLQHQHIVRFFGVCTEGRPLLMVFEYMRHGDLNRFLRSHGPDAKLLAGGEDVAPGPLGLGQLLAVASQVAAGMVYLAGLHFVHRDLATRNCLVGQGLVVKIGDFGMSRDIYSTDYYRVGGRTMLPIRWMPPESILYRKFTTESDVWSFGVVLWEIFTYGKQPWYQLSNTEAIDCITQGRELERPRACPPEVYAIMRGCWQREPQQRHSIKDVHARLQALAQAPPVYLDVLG

- inhibition at 1 µM (Human Jak2 kinase domain; [4]): 45.8%
SMILES: O=C(N[C@H]1CC[C@H](O)CC1)c1cnn2ccc(N3CCC[C@@H]3c3cncc(F)c3)nc12 [Example 99, 5-((R)-2-(5-fluoropyridin-3-yl)pyrrolidin-1-yl)-N-((trans)-4-hydroxycyclohexyl)pyrazolo[1,5-a]pyrimidine-3-carboxamide]

- inhibition at 1 µM (Human Jak2 kinase domain; [4]): 13.8%
SMILES: O=C(N[C@H]1CC[C@@H](O)CC1)c1cnn2ccc(N3CCC[C@@H]3c3cncc(F)c3)nc12 [Example 100, 5-((R)-2-(5-fluoropyridin-3-yl)pyrrolidin-1-yl)-N-((cis)-4-hydroxycyclohexyl)pyrazolo[1,5-a]pyrimidine-3-carboxamide]

- IC50 (Human Tyk2 kinase domain): > 1000 nM
- IC50 [2]: > 1000 nM
- IC50 [3]: > 1000 nM
SMILES: Cc1ncc(F)cc1[C@H]1CCCN1c1ccn2ncc(C(=O)N[C@H]3CC[C@H](O)CC3)c2n1 [Example 194, 5-((R)-2-(5-fluoro-2-methylpyridin-3-yl)pyrrolidin-1-yl)-N-((trans)-4-hydroxycyclohexyl)pyrazolo[1,5-a]pyrimidine-3-carboxamide]

Second part, the molecule before the results:

SMILES: COc1ncc(F)cc1[C@H]1CCCN1c1ccn2ncc(C(=O)N[C@H]3CC[C@H](O)CC3)c2n1 [Example 140, 5-((R)-2-(5-fluoro-2-methoxypyridin-3-yl)pyrrolidin-1-yl)-N-((trans)-4-hydroxycyclohexyl)pyrazolo[1,5-a]pyrimidine-3-carboxamide]
- IC50 (Human Tyk2 kinase domain): > 1000 nM

SMILES: Cc1ncc(F)cc1[C@H]1CCCN1c1ccn2ncc(C(=O)N[C@@H]3CCC[C@H]3O)c2n1 [Example 197, 5-((R)-2-(5-fluoro-2-methylpyridin-3-yl)pyrrolidin-1-yl)-N-((1R,2R)-2-hydroxycyclopentyl)pyrazolo[1,5-a]pyrimidine-3-carboxamide]
- IC50 (Human Jak2 kinase domain; Table 1, 500 μM ATP, >1000 nM when >50% inhibition not observed at 1000 nM, read-out: Jak2 Enzyme IC50): > 1000 nM
- IC50 [1]: 4.8 nM

SMILES: O=C(N[C@@H]1C2CC[C@@H](C2)[C@@H]1CO)c1cnn2ccc(N3CCC[C@@H]3c3cncc(F)c3)nc12 [Example 138, 5-((R)-2-(5-fluoropyridin-3-yl)pyrrolidin-1-yl)-N-((2R,3S,4S)-3-(hydroxymethyl)bicyclo[2.2.1]heptan-2-yl)pyrazolo[1,5-a]pyrimidine-3-carboxamide]
- inhibition at 1 µM (Human Jak2 kinase domain; read-out: Jak2 Enzyme % inhibition at 1000 nM): 10%
